Patent publication US11471448B2 (priority 2020, dated 2022)
Counter-ions that a name gives are not always drawn.

Legend:
[1] = tested on: patients with COVID-19 pneumonia; test: Pilot study / compassionate use of opaganib in hospitalized COVID-19 pneumonia patients; format: in vivo, human
From the text: Return to room air or a specific SpO2 oxygen saturation on room air. Assessment of on-treatment viral load changes, and changes in D-dimer, cardiac troponin, LDH and ferritin levels. Study Design:
Patients entered a screening period of up to 1 week. Eligible patients entered the treatment period for up to 2 weeks. All participants were followed for 2 weeks after their last dose of study drug, at the end of the 2 week treatment period, or once they had 2 consecutive daily negative viral swabs for the COVID-19 virus or at after premature drug discontinuation prior to Day 14. The maximum duration of study participation was 35 days […].
• 1. Adult male or female≥18 to ≤75 years of age, inclusive • 2. Proven COVID-19 infection and pneumonia not requiring mechanical ventilation or mechanically ventilated for no more than 24 hours at time of informed consent • 3. The patient, guardian or legally acceptable representative has signed a written IRB-approved informed consent. Key Exclusion Criteria: • 1. New York Heart Association Class III or IV, cardiac disease, myocardial infarction within the past 6 months, unstable arrhythmia, or evidence of ischemia on ECG • 2. Any co-morbidity that may add risk to the treatment in the judgement of the investigator. • 3. Pregnant (positive serum test) or nursing women • 4. Unwillingness or inability to comply with procedures required in this protocol. • 5. AST (SGOT) or ALT (SGPT)>2.5× upper limit of normal (ULN) • 6. Bilirubin>1.5×ULN (except where bilirubin increase is due to Gilbert's Syndrome) • 7. Serum creatinine>2.0×ULN • 8. Absolute neutrophil count<1000 cells/mm^3 • 9. Platelet count<75,000/mm^3 • 10. Hemoglobin<8.0 g/dL • 11. Currently taking warfarin, apixaban, argatroban or rivaroxaban • 12. Current drug or alcohol abuse Study Assessments: The following will be monitored daily (see Table 3): • Review of concomitant medications • Adverse Events • Physical exam • Vital signs (temperature, blood pressure, pulse rate, respiratory rate and oxygen saturation by pulse oximeter) • Clinical symptoms (cough, dyspnea, nausea, vomiting, diarrhea) • Nasopharyngeal viral swab • Serum chemistry • CBC with differential • Chest X-ray • Urinalysis
Each dose is administered with food or 15-30 minutes after tube-feeding, where appropriate.
These patients had moderate to severe COVID-19-related pneumonia with hypoxia on supplemental oxygen.
Five patients were included in the analysis, and for comparison purposes, we used a control group with same-sex, same-severity patients (baseline characteristics). Univariate comparisons between the groups were performed with chi-square test for categorical variables and t-test or MannWhitney U-test for continuous variables, as appropriate. Time variables were compared with Cox proportional hazard regression, adjusted for age and background illnesses. CRP and lymphocyte changes were compared utilizing a repeated measures general linear model with a Bonferroni correction for multiple comparison.

[2] = tested on: patients with COVID-19 pneumonia; test: Randomized, double-blind, placebo-controlled Phase 2a study of opaganib in COVID-19 pneumonia; format: in vivo, human
From the text: This was a phase 2a, proof of concept, multi-center randomized double-blind, parallel arm, placebo-controlled study. After informed consent was obtained, patients entered a screening phase for no more than 3 days, to determine eligibility. […] Treatment assignments remained blinded to the patient, investigator and hospital staff, as well as the sponsor. As there was no consensus for a definitive treatment specifically targeting the SARS-CoV-2 virus causing COVID-19 (Wilson, 2020), standard of care referred to regional, institutional or physician directed therapies, that were implemented during the COVID-19 pandemic.
Study drug was to be administered every day for 14 days (Day 1 to Day 14), unless the patient had been discharged from the hospital without requiring supplemental oxygen, in which case study drug would only be administered to Day 10.
All participants were followed up for 4 weeks after their last dose of study drug, which may have occurred at the end of the 2-week double-blind treatment phase or after premature study drug discontinuation, based upon patient or physician determination. The maximum duration of study participation was up to 45 days (including up to 3 days screening; 2 weeks DB treatment phase and 4-weeks off-study drug follow-up)
• 1. Adult male or female≥18 to ≤80 years of age • 2. Proven COVID-19 infection per RT-PCR assay of a pharyngeal sample (nasopharyngeal or oropharyngeal) AND pneumonia defined as radiographic opacities on chest X-ray • 3. The patient requires supplemental oxygen at baseline • 4. The patient, guardian or legal representative has signed a written IRB-approved informed consent Exclusion: • 1. Any co-morbidity that may add risk to the treatment in the judgement of the investigator. • 2. Requiring intubation and mechanical ventilation • 3. Oxygen saturation≥95% on room air • 4. Any preexisting respiratory condition that requires intermittent or continuous ambulatory oxygen prior to hospitalization • 5. Patient is, in the investigator's clinical judgement, unlikely to survive >72 hours • 6. Pregnant (positive serum test within 3 days prior to randomization) or nursing women • 7. Unwillingness or inability to comply with procedures required in this protocol. • 8. Corrected QT (QTc) interval on electrocardiogram (ECG) >470 ms for females or >450 ms for males, calculated using Friedericia's formula (QTcF) • 9. AST (SGOT) or ALT (SGPT) >2.5× upper limit of normal (ULN) • 10. Bilirubin>1.5×ULN (except where bilirubin increase is due to Gilbert's Syndrome) • 11. Serum creatinine>2.0×ULN • 12. Absolute neutrophil count<1000 cells/mm^3 • 13. Platelet count<75,000/mm^3 • 14. Hemoglobin<8.0 g/dL • 15. Currently taking medications that are sensitive CYP3A4, CYP2C9 or CYP2C19 substrates and have a narrow therapeutic index • 16. Currently taking medications that are strong inducers or inhibitors of CYP2D6 and CYP3A4 • 17. Currently taking warfarin, apixaban, argatroban or rivaroxaban • 18. Current drug or alcohol abuse • 19. Currently participating in a clinical study assessing pharmacological treatments, including anti-viral studies Number of Subjects: […]

[3] = of 6 moderate-to-severe patients

SMILES: O=C(NCc1ccncc1)C12CC3CC(C1)CC(c1ccc(Cl)cc1)(C3)C2 [opaganib, 3-(4-chlorophenyl)-adamantane-1-carboxylic acid (pyridin-4-ylmethyl) amide, hydrochloride salt]
- HR, time to weaning from HFNC, cases vs. controls ([1]; 95% CI: 0.07-1.7, p=0.2, Cox regression adjusted for age and background illnesses): 0.3
- HR, time to ambient air, cases vs. controls ([1]; 95% CI: 0.15-1.5): 0.4
- Lymphocytes, most recent ([1]; Patient 1 (14 d), baseline 1.6, 17 Apr. 2020): 2.8 (17 Apr. 2020) 10^3/mm^3
- CRP, most recent ([1]; Patient 1 (14 d), baseline 15.1, 17 Apr. 2020): 1 (17 Apr. 2020) mg/L
- Clinical Assessment ([1]; Patient 1 (14 d on opaganib), started severe on maximal OptiFlow 3 Apr. 2020): 3 Apr. 2020; RA by 16/4. As of 22/4, one negative
- Lymphocytes, most recent ([1]; Patient 2 (14 d), baseline 1.1, 17 Apr. 2020): 2.1 (17 Apr. 2020) 10^3/mm^3
- CRP, most recent ([1]; Patient 2 (14 d), baseline 14.2, 17 Apr. 2020): 4.8 (17 Apr. 2020) mg/L
- Clinical Assessment ([1]; Patient 2 (14 d), started severe+, planning for intubation 7 Apr. 2020): 7 Apr. 2020; RA by 20 Apr. 4 2020, D/C on
- Lymphocytes, most recent ([1]; Patient 3 (7 d), baseline 0.9, 17 Apr. 2020): 1.2 (17 Apr. 2020) 10^3/mm^3
- CRP, most recent ([1]; Patient 3 (7 d), baseline 10.7, 17 Apr. 2020): 1.7 (17 Apr. 2020) mg/L
- Clinical Assessment ([1]; Patient 3 (7 d), moderate-severe, on OptiFlow 13 Apr. 2020, RA by 17 Apr. 2020): 17 Apr. 2020, D/C on 19 Apr. 2020
- Lymphocytes, most recent ([1]; Patient 4 (11 d), baseline 1.2, 22 Apr. 2020): 1 (22 Apr. 2020) 10^3/mm^3
- CRP, most recent ([1]; Patient 4 (11 d), baseline 24.8, 22 Apr. 2020): 17.4 (22 Apr. 2020) mg/L
- Clinical Assessment ([1]; Patient 4 (11 d), started severe+ 70% OptiFlow on 13 Apr. 2020): RA on 22 Apr. 2020
- Clinical Assessment ([1]; Patient 5 (2 d), started moderate on 13 Apr. 2020, nasal cannula, D/C on 14 Apr. 2020 on RA): Dramatic improvement after one day on
- Lymphocytes, most recent ([1]; Patient 6 (5 d), baseline 1.35, 24 Apr. 2020): 1.96 (24 Apr. 2020) 10^3/mm^3
- CRP, most recent ([1]; Patient 6 (5 d), baseline 12.2, 24 Apr. 2020): 6.8 (24 Apr. 2020) mg/L
- adverse event leading to discontinuation ([1]; Patient 7 (1 d), also on HCQ and azithromycin, may or may not be related to opaganib): opaganib started. Diarrhea the next day, all 3 meds were stopped, followed by worsening SOB, on 75% OptiFlow.
- C-Reactive Protein (CRP) ([1]; all six patients): reduction
- clinical improvement, including reduced supplemental oxygenation and higher lymphocyte counts ([1]; all six patients): measurable clinical improvement
- median time to weaning from high-flow nasal cannula (HFNC) ([1]; cases, controls 15 days): 10 days
- cases requiring mechanical ventilation ([1]; compared with 33% of controls): none
- lymphocyte count change vs. matched controls ([1]; five patients vs. same-sex, same-severity control group): significantly faster increase
- patients back to breathing room air [1, 3]: 5 patients
- patients discharged from hospital [1, 3]: 3 patients
- moderate to-severe patients improved significantly ([1]; of 6 patients treated (patient #7 excepted), opaganib plus standard-of-care): 6 patients
- patients with serious adverse events (SAEs) vs. placebo arm ([2]; 500 mg Q12 hours up to 14 days): fewer patients
- safety ([2]; 500 mg Q12 hours up to 14 days plus standard of care, vs. placebo): safe
- reduction from baseline of the medial total oxygen requirement (AUC) over 14 days ([2]; control arm 46.7%): 68.0%
- proportion of patients discharged by Day 14 ([2]; control arm 55.6%): 73.7%
- proportion of patients reaching room air and no longer requiring oxygen support by Day 14 ([2]; mITT sensitivity, control arm 22.2%): 52.6%
- proportion of patients with 50% reduction in supplemental oxygen by day 14 ([2]; mITT sensitivity, control arm 66.7%): 89.5%
- patients with adverse events such that study drug was terminated ([2]; opaganib arm, one patient in placebo arm): Two
